Experimental data: US9937151B2, “Carbapenem antibacterials with gram-negative activity” (priority 2010, dated 2018)
Converted amounts (≈) assume the structure as drawn.

Tested on: G(−) bacterial strains
Assay: Dilution antimicrobial susceptibility tests (MIC, NCCLS agar dilution / broth dilution)
Type: cell-based, Gram-negative organisms
Settings: unit assumed
Experimental: The MIC (minimum inhibitory concentration) was determined by the NCCLS (National Committee for Clinical Laboratory Standards) methods 2000. Methods for dilution antimicrobial susceptibility testing for bacteria that growth aerobically (M7-A5, vol. 20, No. 2). The agar dilution method for determining antimicrobial susceptibility was carried out using Mueller-Hinton agar. A final inoculum of 10^4 CFU/spot was applied with an inoculation device. Broth dilution tests were performed with 5×10^5 CFU/well in 96 well plates. The susceptibilities of streptococci were determined by Mueller-Hinton agar supplemented with 5% sheep blood. All assays were run with the indicated control strains, available from the ATCC (American Type Culture Collection, Rockville, Md.).
Abbreviations used in Table 1 are defined as follows: Cf-R: Ceftazidime Resistance, Ci-R: Ciprofloxacin Resistance, Gen-R: Gentamycin Resistance, Imp-R: Imipenem Resistance, Mp-R: Meropenem Resistance, Ofx-R: Ofloxacin Resistance, B+: β-lactamase Production, AmpC: AmpC-lactamase Hyper production, CBPase: Carbapenemase Production.

[1] = strain #1 Acinetobacter calcoaceticus
[2] = strain #2 Acinetobacter baumannii, Cf-R, Ci-R
[3] = strain #3 Acinetobacter baumannii, Cf-R, Ci-R, Mp-I
[4] = strain #4 Acinetobacter baumannii, Cf-R, Imp-I, CBPase
[5] = strain #7 Enterobacter aerogenes
[6] = strain #8 Enterobacter cloacae, Cf-R, B+
[7] = strain #9 Enterobacter cloacae, Cf-R
[8] = strain #10 Escherichia coli, Ci-R
[9] = strain #11 Escherichia coli, Ci-R, AmpC
[10] = strain #15 Klebsiella pneumoniae
[11] = strain #16 Moraxella catarrhalis
[12] = strain #21 Providencia rettgeri
[13] = strain #22 Salmonella typhimurium
[14] = strain #25 Shigella dysenteriae
[15] = strain #28 Stenotrophomonas maltophilia
[16] = strain #29 Pseudomonas aeruginosa
[17] = strain #30 Pseudomonas aeruginosa
[18] = strain #31 Pseudomonas aeruginosa, Ofx-R
[19] = strain #32 Pseudomonas aeruginosa, Cf-R
[20] = strain #33 Pseudomonas aeruginosa, Ci-R
[21] = strain #34 Pseudomonas aeruginosa, Gen-R
[22] = strain #35 Pseudomonas aeruginosa, Ip-R
[23] = strain #36 Pseudomonas aeruginosa, Cf-R, Ci-R, Mp-R

SMILES: C[C@@H](O)C1C(=O)N2C(C(=O)O)=C(CN3CC[C@H](N(C)C)C3)[C@H](C)C12 (stereo partly drawn) [Compound 46]
- MIC [1]: 1 µg/mL (≈ 2.96 µM)
- MIC [2]: 2 µg/mL (≈ 5.93 µM)
- MIC [3]: 4 µg/mL (≈ 11.9 µM)
- MIC [4]: 4 µg/mL (≈ 11.9 µM)
- MIC (strain #5 Citrobacter diversus): 0.25 µg/mL (≈ 0.741 µM)
- MIC (strain #6 Citrobacter freundii): 0.5 µg/mL (≈ 1.48 µM)
- MIC [5]: 1 µg/mL (≈ 2.96 µM)
- MIC [6]: 0.25 µg/mL (≈ 0.741 µM)
- MIC [7]: 0.5 µg/mL (≈ 1.48 µM)
- MIC [8]: 0.25 µg/mL (≈ 0.741 µM)
- MIC [9]: 0.25 µg/mL (≈ 0.741 µM)
- MIC (strain #12 Escherichia coli): 0.25 µg/mL (≈ 0.741 µM)
- MIC (strain #13 Escherichia coli): 0.25 µg/mL (≈ 0.741 µM)
- MIC (strain #14 Klebsiella oxytoca): 0.5 µg/mL (≈ 1.48 µM)
- MIC [10]: 0.5 µg/mL (≈ 1.48 µM)
- MIC [11]: ≤ 0.008 µg/mL
- MIC (strain #17 Morganella Morganii): 2 µg/mL (≈ 5.93 µM)
- MIC (strain #18 Morganella Morganii): 2 µg/mL (≈ 5.93 µM)
- MIC (strain #19 Proteus vulgaris): 1 µg/mL (≈ 2.96 µM)
- MIC (strain #20 Proteus mirabilis): 0.25 µg/mL (≈ 0.741 µM)
- MIC [12]: 1 µg/mL (≈ 2.96 µM)
- MIC [13]: 0.25 µg/mL (≈ 0.741 µM)
- MIC (strain #23 Serratia marcescens): 1 µg/mL (≈ 2.96 µM)
- MIC (strain #24 Serratia marcescens): 1 µg/mL (≈ 2.96 µM)
- MIC [14]: 0.5 µg/mL (≈ 1.48 µM)
- MIC (strain #26 Shigella sonnei): 0.25 µg/mL (≈ 0.741 µM)
- MIC (strain #27 Shigella flexneri): 0.25 µg/mL (≈ 0.741 µM)
- MIC [15]: 0.5 µg/mL (≈ 1.48 µM)
- MIC [16]: 4 µg/mL (≈ 11.9 µM)
- MIC [17]: 4 µg/mL (≈ 11.9 µM)
- MIC [18]: 1 µg/mL (≈ 2.96 µM)
- MIC [19]: 4 µg/mL (≈ 11.9 µM)
- MIC [20]: 4 µg/mL (≈ 11.9 µM)
- MIC [21]: 4 µg/mL (≈ 11.9 µM)
- MIC [22]: 16 µg/mL (≈ 47.4 µM)
- MIC [23]: 32 µg/mL (≈ 94.8 µM)

SMILES: C[C@@H](O)C1C(=O)N2C(C(=O)[O-])=C(C[N+]3(C)CC[C@H](NC(=N)N)C3)[C@H](C)C12 (stereo partly drawn) [Compound 67]
- MIC [1]: 2 µg/mL (≈ 5.47 µM)
- MIC [2]: 8 µg/mL (≈ 21.9 µM)
- MIC [3]: 8 µg/mL (≈ 21.9 µM)
- MIC [4]: 4 µg/mL (≈ 10.9 µM)
- MIC (strain #5 Citrobacter diversus): 0.13 µg/mL (≈ 0.356 µM)
- MIC (strain #6 Citrobacter freundii): 0.25 µg/mL (≈ 0.684 µM)
- MIC [5]: 4 µg/mL (≈ 10.9 µM)
- MIC [6]: 0.13 µg/mL (≈ 0.356 µM)
- MIC [7]: 0.25 µg/mL (≈ 0.684 µM)
- MIC [8]: 0.13 µg/mL (≈ 0.356 µM)
- MIC [9]: 0.13 µg/mL (≈ 0.356 µM)
- MIC (strain #12 Escherichia coli): 0.13 µg/mL (≈ 0.356 µM)
- MIC (strain #13 Escherichia coli): 0.25 µg/mL (≈ 0.684 µM)
- MIC (strain #14 Klebsiella oxytoca): 0.25 µg/mL (≈ 0.684 µM)
- MIC [10]: 4 µg/mL (≈ 10.9 µM)
- MIC [11]: 0.016 µg/mL (≈ 0.0438 µM)
- MIC (strain #17 Morganella Morganii): 16 µg/mL (≈ 43.8 µM)
- MIC (strain #18 Morganella Morganii): 16 µg/mL (≈ 43.8 µM)
- MIC (strain #19 Proteus vulgaris): 16 µg/mL (≈ 43.8 µM)
- MIC (strain #20 Proteus mirabilis): 0.25 µg/mL (≈ 0.684 µM)
- MIC [12]: 1 µg/mL (≈ 2.74 µM)
- MIC [13]: 0.25 µg/mL (≈ 0.684 µM)
- MIC (strain #23 Serratia marcescens): 0.5 µg/mL (≈ 1.37 µM)
- MIC (strain #24 Serratia marcescens): 0.5 µg/mL (≈ 1.37 µM)
- MIC [14]: 0.25 µg/mL (≈ 0.684 µM)
- MIC (strain #26 Shigella sonnei): 0.25 µg/mL (≈ 0.684 µM)
- MIC (strain #27 Shigella flexneri): 0.13 µg/mL (≈ 0.356 µM)
- MIC [15]: 2 µg/mL (≈ 5.47 µM)
- MIC [16]: 1 µg/mL (≈ 2.74 µM)
- MIC [17]: 2 µg/mL (≈ 5.47 µM)
- MIC [18]: 2 µg/mL (≈ 5.47 µM)
- MIC [19]: 2 µg/mL (≈ 5.47 µM)
- MIC [20]: 2 µg/mL (≈ 5.47 µM)
- MIC [21]: 2 µg/mL (≈ 5.47 µM)
- MIC [22]: 4 µg/mL (≈ 10.9 µM)
- MIC [23]: 16 µg/mL (≈ 43.8 µM)
